These results are taken from patent US20130202629A1, “USES OF PHOSPHOLIPID CONJUGATES OF SYNTHETIC TLR7 AGONISTS” (The Regents of the University of California, priority 2010, published 2013).

In the assay the test system is C57BL/6 mice. It is filed as in vivo, mouse. As for the experimental part: Anti-OVA antibodies of the IgG subclasses (and in some embodiments specifically IgG1 and IgG2) were measured by ELISA, as described in Cho, H. J et al., “Immunostimulatory DNA-based vaccines induce cytotoxic lymphocyte activity by a T-helper cell-independent mechanism” [see comments], Nat. Each ELISA plate contained a titration of a previously quantitated serum to generate a standard curve. The titer of this standard was calculated as the highest dilution of serum that gave an absorbance reading that was double the background. The various sera samples were tested at a 1:100 dilution. The results are expressed in units per mL, calculated based on the units/mL of the standard serum, and represent the mean±SEM of five animals in each group. * and T denote P<0.05 and P<0.01 by One-way ANOVA compared to the mice immunized with OVA mixed with vehicle, respectively.
Spleenocytes were prepared from the harvested spleens. […] The levels of IFNα in the culture supernatants were measured by ELISA (BD Bioscience PharMingen) as per the manufacturer's instructions (Kobayashi, H et al., Prepriming: a novel approach to DNA-based vaccination and immunomodulation”, Springer Semin. Immunopathol., 22:85 (2000)), and the results illustrated in FIG. 5C. Average total spleen cell number in each group were calculated and compared to the PBS-immunized groups to monitor the spleen cell proliferation. Data are mean±SEM of five mice and are representative of three independent experiments.
The efficiency of adjuvanticity was assessed by measurement of the levels and isotypes of the antigen-specific IgG that the vaccine induces, in particular IgG1 and IgG2 (Mosmann, T. R., and Coffman, R. L., ‘TH1 and TH2 cells: different patterns of lymphokine secretion lead to different functional properties’, Annual Review Immunology, 7:145 (1989)). […] ISS-ODN was used as a potent Th1 adjuvant positive control.

For `CCCCCCCC/C=C\CCCCCCCC(=O)OCC(COP(=O)(O)OCCNC(=O)c1ccc(Cn2c(=O)[nH]c3c(N)nc(OCCOC)nc32)cc1)OC(=O)CCCCCCC/C=C\CCCCCCCC` (stereo not drawn) [Compound 6, 2-(4-((6-amino-2-(2-methoxyethoxy)-8-oxo-7H-purin-9(8H)-yl)methyl)benzamido)ethyl 2,3-bis(oleoyloxy)propyl phosphate], the “adjuvant activity when administered with the antigen ovalbumin” value (mouse, in vivo) is listed as “potent adjuvant”. For the same compound, for the setting “s.c. 20 μg OVA + 10 nmol conjugate on days 0 and 7”, the “earliest induction of OVA-specific antibodies of the IG subclass (FIG. 5A)” value was 14 days. The “OVA-specific IFN secretion by spleen cells” value (splenocytes of day 56 restimulated with OVA (FIG. 5C)) is listed as “enhanced”.
